Results from patent US12043599B2, “Herbicidal compounds” (SYNGENTA PARTICIPATIONS AG, priority 2018, dated 2024).

Columns and labels:
Format in all cases: in vivo
Settings in all cases: 250 g/h, evaluated after 13 days
Avena fatua (AVEFA) [1] = assay: Pre-emergence herbicidal glasshouse test, percentage damage
Procedure: (§1) Seeds of a variety of test species are sown in standard soil in pots (Lolium perenne (LOLPE), Setaria faberi (SETFA), Alopecurus myosuroides (ALOMY), Echinochloa crus-galli (ECHCG), Avena fatua (AVEFA)). After cultivation for one day (pre-emergence) or after 8 days cultivation (post-emergence) under controlled conditions in a glasshouse (at 24/16° C., day/night; 14 hours light; 65% humidity), the plants are sprayed with an aqueous spray solution derived from the formulation of the technical active ingredient in acetone/water (50:50) solution containing 0.5% Tween 20 (polyoxyethelyene sorbitan monolaurate, CAS RN 9005-64-5). Compounds are applied at […]. The test plants are then grown in a glasshouse under controlled conditions in a glasshouse (at 24/16° C., day/night; 14 hours light; 65% humidity) and watered twice daily. After 13 days for pre and post-emergence, the test is evaluated for the percentage damage caused to the plant. The biological activities are shown in the following table on a five point scale (5=80-100%; 4=60-79%; 3=40-59%; 2=20-39%; 1=0-19%).

[2] = test system: Echinochloa crus-galli (ECHCG); assay: as above
Procedure: as §1

Lolium perenne (LOLPE) [3] = assay: as above
Procedure: as §1

Setaria faberi (SETFA) [4] = assay: as above
Procedure: as §1

Setaria faberi (SETFA) [5] = assay: Post-emergence herbicidal glasshouse test, percentage damage
Procedure: as §1
Using procedures outlines above, wheat and barley crop plants and a weed species (SETFA) are treated post-emergence with compound A11 of the present invention or comparator compound C1 (Compound A-38 from WO2014/096289) at the application rates indicated. The compounds were also applied to wheat in conjunction with the safener compound cloquintocet-mexyl (CQC) at 50 g/ha.

Avena fatua (AVEFA) [6] = assay: as above
Procedure: as §1

[7] = test system: Echinochloa crus-galli (ECHCG); assay: as above
Procedure: as §1

Lolium perenne (LOLPE) [8] = assay: as above
Procedure: as §1

Compound	AVEFA PRE percentage damage (five point scale) (Avena fatua (AVEFA) [1])	ECHCG PRE percentage damage (five point scale) [2]	LOLPE PRE percentage damage (five point scale) (Lolium perenne (LOLPE) [3])	SETFA PRE percentage damage (five point scale) (Setaria faberi (SETFA) [4])	SETFA POST percentage damage (five point scale) (Setaria faberi (SETFA) [5])	AVEFA POST percentage damage (five point scale) (Avena fatua (AVEFA) [6])	ECHCG POST percentage damage (five point scale) [7]	LOLPE POST percentage damage (five point scale) (Lolium perenne (LOLPE) [8])
CC#Cc1cc(C)c(C2C(=O)CC3(CCN(C(=O)c4cc(OC)ccn4)CC3)CC2=O)c(C)c1 [Compound A120]	4 (4=60-79%)	5 (5=80-100%)	5 (5=80-100%)	5 (5=80-100%)	5 (5=80-100%)	5 (5=80-100%)	5 (5=80-100%)	5 (5=80-100%)
CC#Cc1cc(C)c(C2C(=O)CC3(CCN(C(=O)c4cnn(C)n4)CC3)CC2=O)c(C)c1 [Compound A126]	5 (5=80-100%)	5 (5=80-100%)	5 (5=80-100%)	5 (5=80-100%)	5 (5=80-100%)	5 (5=80-100%)	5 (5=80-100%)	5 (5=80-100%)
CC#Cc1cc(C)c(C2C(=O)CC3(CCN(C(=O)c4ccc(OC)nn4)CC3)CC2=O)c(C)c1 [Compound A132]	5 (5=80-100%)	5 (5=80-100%)	5 (5=80-100%)	5 (5=80-100%)	5 (5=80-100%)	5 (5=80-100%)	5 (5=80-100%)	5 (5=80-100%)
CC#Cc1cc(C)c(C2C(=O)CC3(CCN(C4=NOC(C)(C)C4)CC3)CC2=O)c(C)c1 [Compound A143]	4 (4=60-79%)	5 (5=80-100%)	5 (5=80-100%)	5 (5=80-100%)	5 (5=80-100%)	5 (5=80-100%)	5 (5=80-100%)	5 (5=80-100%)
CC#Cc1cc(C)c(C2C(=O)CC3(CCN(C(=O)CC4CCOCC4)CC3)CC2=O)c(C)c1 [Compound A109]	5 (5=80-100%)	5 (5=80-100%)	5 (5=80-100%)	5 (5=80-100%)	5 (5=80-100%)	5 (5=80-100%)	5 (5=80-100%)	5 (5=80-100%)
CC#Cc1cc(C)c(C2C(=O)CC3(CCN(C(=O)C4COCCO4)CC3)CC2=O)c(C)c1 (stereo not shown) [Compound A133]	5 (5=80-100%)	5 (5=80-100%)	5 (5=80-100%)	5 (5=80-100%)	5 (5=80-100%)	5 (5=80-100%)	5 (5=80-100%)	5 (5=80-100%)
CC#Cc1cc(C)c(C2C(=O)CC3(CCN(C(=O)c4cocn4)CC3)CC2=O)c(C)c1 [Compound A123]	5 (5=80-100%)	5 (5=80-100%)	5 (5=80-100%)	5 (5=80-100%)	5 (5=80-100%)	5 (5=80-100%)	5 (5=80-100%)	5 (5=80-100%)
CC#Cc1cc(C)c(C2=C(OC(=O)OC)CC3(CCN(C(=O)Cc4ccccn4)CC3)CC2=O)c(C)c1 [Compound P47]	5 (5=80-100%)	5 (5=80-100%)	5 (5=80-100%)	5 (5=80-100%)	5 (5=80-100%)	5 (5=80-100%)	5 (5=80-100%)	5 (5=80-100%)
